These results are taken from a melting point compilation (Tetko et al.; mined from patent text by program, amines drawn as free bases though some values may be those of a salt).

Molecules are shown by their SMILES. Bounds are passed on as bounds.

Consider `O=C(c1ncccc1OC1SCC(O)C(O)C1O)N1CCCCC1` (stereo not drawn), for which the melting point was in the range of 81 to 92 °C.

Take `O=C(NC(=O)c1ccc(F)c(OC(F)F)c1F)NC1CC1`: the melting point lay in the range of 128 to 130 °C. The same measure for `CCCCCCCCCCCCCCCCCCOc1cc(O)cc(N(CC(=O)O)CC(=O)O)c1`: 143 to 146 °C; for `O=C1c2cc3nnn(Cc4cnccn4)c(=O)c3cc2OC2CCCN12` (stereo not drawn): 229 to 231 °C. Under `Cc1cc2c(-c3cccc(-c4noc(=S)[nH]4)c3)c(CC(=O)Nc3ccc(F)cc3C(F)(F)F)c(=O)oc2cc1Cl` stands 178 to 180 °C; under `O=C(c1ccc(-c2ncc[nH]2)cc1)N1CCN(S(=O)(=O)c2ccc3cc(Cl)ccc3c2)CC1`, 159 to 161 °C; under `CCC12CC(Cl)C3C4CCC(=O)C=C4CCC3C1C(OC(C)=O)CC2=O` (stereo not drawn), 125 °C. The molecule `C#CCn1c(C(F)(F)F)cc2ccccc21` displayed a melting point of 59 °C. The same measure for `CCCCCCCNC(=O)Nc1ccc(-n2nc(C(F)(F)F)cc2C(F)(F)F)cc1`: 129 to 130 °C. Under `CCOC(=O)C(C(=O)OCC)C(Cc1cc(C(F)(F)F)ccc1N)c1ccccc1Cl` (stereo not drawn) stands 74 to 76 °C; under `O=C1C(c2ccccc2)=C(c2cccs2)C(=O)N1c1ccc(Cl)cc1`, 176 to 177 °C; under `OCc1cn(Cc2ccc(Cl)cc2)nc1CN1CCC(c2ccccc2)(c2ccccc2)CC1`, 104 to 105 °C.

With `C1CCC2NC3NC4CCCCC4NC3NC2C1` (stereo not drawn), the melting point lay within 148 to 155 °C. The same measure for `Cc1cccc(NC(=O)NCC(=O)N(CC(=O)N2CCCC2)c2ccccc2)c1`: 206 °C; for `O=S1(=O)N=CN(C2CCCCC2)c2cc(Cl)ccc21`: 189 to 191 °C; for `COc1ccc(-c2cnc(C#N)nc2)cc1OC1CCCC1`: 121 to 123 °C. The same measure for `Nc1ccccc1N1CCN(CCCOc2cccc3c2CCCC3)CC1`: 100 to 101 °C. `O=c1c2c(nc3c(O)cccn13)CCC2` registered a melting point of 136 to 142 °C. For `CCC(Oc1ccc2oc3cc(Cl)ccc3c2c1)C(=O)O` (stereo not drawn), the melting point was in the range of 143 to 145 °C. Under `Cc1ccc(C(=O)NCC(N)=O)cc1-n1c(C)cc(OCc2ccccc2CNC(=O)Nc2cc(C(C)(C)C)nn2-c2ccc(O)c(Cl)c2)c(Cl)c1=O` stands 228 to 230 °C; under `O=C1c2cccc(O)c2NC(O)C2CCCN12` (stereo not drawn), 155 to 157 °C. `O=[N+]([O-])c1ccc2c(c1-c1n[nH]cc1Cl)OC(F)(F)O2` had a melting point of 180 °C. The molecule `CC(=Nc1ccc(C2=NNC(=O)CC2C)cc1)c1ccc(O)cc1O` (stereo not drawn) came in with a melting point of 185 to 190 °C. Under `CCOC(=O)c1cnc2sc3c(n12)CCCCC3` stands 73 to 74 °C; under `COc1cc2c3c(c1)c(=O)c(Cc1cccnc1)cn3-c1ccc(Br)cc1S2`, 157 to 159 °C; under `CC(Cl)C(=O)c1ccc(OCCCN2C(=O)c3ccccc3C2=O)cc1` (stereo not drawn), 137 to 138 °C.

In turn, `CCC(=O)NC(=O)c1cc([N+](=O)[O-])cnc1C` registered a melting point of 171 to 173 °C.

As to `COc1nc(NCCc2ccccc2)c2cc(C)sc2n1`, the melting point came out at 138 °C. Molecule `CCc1ccc(-c2ncccc2S(=O)(=O)Nc2ncc(C)nc2OC)cc1` displayed a melting point of 73 °C. `O=C(O)[C@@H]1C[C@H]1c1ccc([N+](=O)[O-])cc1` (relative stereo) gave a melting point of 195 to 196 °C. Under `O=C(O)c1ccccc1-c1ccc(CO)cc1` stands 140 to 142 °C; under `COCc1ccc(S(=O)(=O)N2CCCC2c2ccc(F)cc2)cc1` (racemic), 115 °C; under `Cc1ccc(Oc2ccc(C(=O)O)cc2)cc1`, 175 °C. The molecule `CS(=O)(=O)N1CCN(C(=N)Nc2ccccc2-c2ccccc2)CC1` displayed a melting point of 178 to 180 °C. `CCS(=O)(=O)N(C)[C@@H]1c2cc(OCc3ccccc3)ccc2OC(C)(C)[C@H]1O` gave a melting point of 165 to 167 °C. The same measure for `CCCCCCCCCCCCCCCCCCOc1cc(C(=O)O)cc(C(=O)OC)c1`: 81 to 83 °C; for `CC(=O)N1CCC(NC(=O)Nc2cccc(F)c2)CC1`: 112 to 114 °C; for `NC(=O)c1cncnc1`: 175 to 178 °C. In turn, `O=C(O)c1ccc(Oc2ccc(Oc3ccccc3)cc2)cc1` yielded a melting point of 185 °C.

For `N#CC1(c2ccncc2)CCCCC1`, the melting point turned out to be 79 °C. The same measure for `C=C(C)C(=O)Oc1c(Cc2cc(C)cc(C(C)(C)C)c2O)cc(C)cc1C(C)(C)C`: 144 to 146 °C. `CN(C)C(=O)Cc1cn(Cc2ccccc2)c2ccc(I)cc12` had a melting point of 167 to 168 °C. The molecule `COc1ncc([N+](=O)[O-])cc1C` registered a melting point of 95 to 96.5 °C. Under `O=C(OCCN1CCCC1)c1c[nH]c2ccccc12` stands 145 to 146 °C; under `Oc1ccc(-c2nnc(-c3cccc(-c4nnc(-c5ccc(O)cc5)o4)c3)o2)cc1`, above 400 °C; under `N#Cc1cc(C2=Nc3cc(O)c(-c4ccccc4F)cc3NC(=O)C2)ccn1`, above 250 °C. Turning to `CCCCc1cc2cc([N+](=O)[O-])ccc2n1C`, the melting point came out at 77 °C. Under `CC(Cc1cccnc1)n1nnc2cc3c(=O)n(C4CC4)nnc3cc2c1=O` (stereo not drawn) stands 160 to 161 °C; under `Cn1cc(C(=O)c2ccc(F)cc2)cc1C(=O)c1ccncc1`, 155 to 157 °C; under `Cc1cc(S(=O)(=O)NCC(C)C)c2c(C)ccc(C(C)C)cc1-2`, 117 to 118 °C. Under `Cc1ccc(C=C2CCc3cc(OCCc4c[nH]cn4)ccc3C2=O)s1` stands 69 to 70 °C. The same measure for `COc1ccc(C2=NC(NC(=O)CCc3ccc(Cl)cc3Cl)C(=O)N(C)c3ccccc32)cc1` (stereo not drawn): 188 to 189 °C. Regarding `CCCCc1cc(=O)oc2cc(O)cc(O)c12`, the melting point lay in the range of 236 to 237 °C. Regarding `CCCCNC(=O)NS(=O)(=O)c1ccccc1-c1ccno1`, the melting point lay within 110 to 113 °C. In turn, `CCCc1c(OCCCOc2cccc(C(=O)O)c2)ccc(C(C)=O)c1O` came in with a melting point of 142 to 143 °C. The molecule `COc1ccc(C(=O)Nc2ccc(N3CCCC3)cc2C(C)=O)cc1` returned a melting point of 174 to 175 °C. The same measure for `Cc1ccc(NCCCCOc2ccc3ccccc3c2)cc1`: 98 °C; for `O=C(c1ccc(-c2cccc(C(F)(F)F)c2)o1)N1Cc2c([nH]c3ccccc3c2=O)C1c1ccc2c(c1)OCO2` (stereo not drawn): 219 to 221 °C; for `O=C(Cn1nc(-c2ccccc2O)nc1-c1ccccc1O)N1CCOCC1`: 149 to 151 °C. The same measure for `N#Cc1c(N2CCN(C(=O)c3ccco3)CC2)c2cc(Cl)cnc2n(Cc2cccc(F)c2)c1=O`: 134 °C; for `C#Cc1ccc(Nc2c(C(=O)c3ccccn3)ccc(F)c2F)c(F)c1`: 109 to 111 °C; for `Cc1c(C(N)=O)oc2ccc(Cc3cccnc3)cc12`: 175 to 177 °C.

Consider `O=C(NC1N=C(c2ccccc2F)c2ccccc2NC1=O)c1cc2ccccc2[nH]1` (racemic), for which the melting point was 290 to 291 °C. Under `CC(=O)c1cc(OCC(O)COc2ccc(C#N)cc2)ccc1O` (stereo not drawn) stands 118 to 120 °C; under `Cc1cnc2c(c1)C(=O)CC(C)(C)C2`, 232 to 235 °C.

`COc1ccc(-c2c(Cl)c(CNC(C)(C)C)nc3sc4c(c23)CCN(C(=O)c2ccccc2)C4)cc1OC` displayed a melting point of 204 to 205 °C. Molecule `O=C(c1ccco1)N1CCN(c2cc(-c3ccc(F)cc3)c3c(n2)CCC3)CC1` showed a melting point of 165 to 166 °C. As to `NC(CSc1ccccc1N)=NO`, the melting point is 80 °C. On to `Cc1c[nH]c(CCC(=O)O)c1`, for which the melting point was in the range of 109 to 112 °C. The same measure for `COc1cccc(CCOc2cccc(-c3cccc(C(=O)NCCNC(=O)OC(C)(C)C)c3)n2)c1`: 128 to 129 °C; for `CCCCCCCCc1cc2c(s1)NC(=O)CN=C2c1ccccc1Cl`: 131 to 133 °C; for `O=C(NC1CN2CCC1CC2)c1cc(Cl)cc2oc(-c3ccccc3)nc12` (stereo not drawn): 180 to 183 °C. `CC(C)CN1CCCCC1C(=O)Nc1cc(C(F)(F)F)ccc1-c1cc(Oc2cccc3[nH]c(=O)c(N)nc23)ncn1` (stereo not drawn): the melting point was above 250 °C. In turn, `COc1c(C)c2c(c(O)c1C/C=C(\C)C(CC(=O)O)OC)C(=O)OC2` (stereo not drawn) registered a melting point of 133 to 135 °C. The same measure for `CCONC(=O)C(=O)NN`: 182 °C; for `CC(C)c1cccc(C(C)C)c1NC(=O)CN[C@H](C)c1ccccc1`: 119 to 120 °C; for `COC(=O)c1c(C(F)F)nc(C(F)(F)F)c(C(=O)SC)c1NC1CC1`: 108 to 109 °C. `O=c1cc(OCc2ccccc2Cl)ccn1Cc1ccccc1` registered a melting point of 125 °C.

For the molecule `COc1ccccc1S(=O)(=O)OC(Br)C(=O)c1ccccc1` (stereo not drawn), the melting point lay in the range of 90 to 91 °C.

`O=C(O)C1(O)CCc2ccccc2C1` (single isomer, unassigned; (-)) returned a melting point of 134 to 135 °C.

`O=C(NC1=NN(c2ccc(Cl)c(Cl)c2)CC1)C(F)(F)F` gave a melting point of 181 to 183 °C.

In turn, `O=C(Cc1ccc(SC(F)(F)F)cc1)NCc1ccc2c(c1)CN(C1CCC(=O)NC1=O)C2=O` (stereo not drawn) showed a melting point of 208 to 210 °C. Molecule `Nc1ccc(SCC2CCC2)cc1[N+](=O)[O-]` showed a melting point of 49 to 53 °C.

As for `CCCn1c(=O)c2[nH]c(C34CCC(C)(C(=O)C3=O)C4(C)C)nc2n(CCC)c1=O` (stereo not drawn), the melting point fell in the range of 200 to 201 °C. In turn, `CN(C)C1(c2ccccc2)CCC(NC2c3ccccc3-c3ccccc32)CC1` (stereo not drawn) had a melting point of 202 to 205 °C. `O=S(=O)(Cc1cc(F)cc(F)c1)NC1CN(C(c2ccc(Cl)cc2)c2cccnc2)C1` (racemic) showed a melting point of 110 °C.

`CC(CCCCN(C)c1ccccc1)NCC(O)c1ccc(O)c(C(N)=O)c1` (stereo not drawn): the melting point is 157 to 160 °C. `Cc1cc(-c2nc3cccnn3c2-c2ccnc(NC(=O)c3ccc4ncsc4c3)c2)ccc1F` had a melting point of 252 to 253 °C.

The term melting point denotes the temperature of the solid-liquid transition.
